Data: patent US20250051337A1 (priority 2021, published 2025)
In brackets after ≈: the same amount, converted by molar mass. Read-outs that look alike come from different tables or passages of the source.

Assays:
STK3 = STK3 (Homo sapiens (Human), UniProt Q13188); experiment: Thermal shift assay (ThermoFluor differential scanning fluorimetry); type: binding; details: for Tm shift: Tm of STK3 or STK4, text statement; for ΔTm at 10 µM: read-out: ΔTm
Experimental: Temperature-dependent protein unfolding profiles were measured using a Real-Time PCR Mx3005p machine (Stratagene: San Diego, CA, USA). Data evaluation and melting temperature calculation were performed using Protein Thermal Shift™ Software v1.2.
To further evaluate binding of these compounds to STK3/4, differential scanning fluorimetry (protein thermal shift using ThermoFluor technology) assay was used to benchmark the capacity to stabilize the kinase domain. The melting temperature (Tm) of STK3 or STK4 was measured in the presence of vehicle (DMSO) or 6, 11 or 23.

LRRK2 = LRRK2 (Homo sapiens (Human), UniProt Q5S007); experiment: NanoBRET intracellular kinase assay, LRRK2; type: cell-based; details: transfected HEK293 cells, 2 h
Experimental: Full-length STK3, STK4, and LRRK2 kinase was cloned in-frame with a C-terminal NanoLuc-fusion (Promega: Madison, WI, USA) and the plasmid was transfected into HEK293T cells using FuGENE HD (Promega, E2312). After 20 h, transfected cells were mixed with inhibitors and 50 nM NanoBRET Kinase Tracer K10 (Promega) and reseeded at a density of 2× 10^5 cells/mL in Opti-Minimal Essential Medium (MEM) without phenol red (Life Technologies; Carlsbad, CA, USA) in 384-well plates (Greiner 781-207; Kremsmunster, Austria). After 2 h at 37° C. in a 5% CO2 atmosphere, NanoBRET NanoGlo Substrate+Extra-cellular NanoLuc Inhibitor (Promega, N2540) was added, and filtered luminescence was measured on a PHERAstar plate reader (BMG Labtech; Ortenberg, Germany) equipped with a lumi-nescence filter pair (450 nm BP filter (donor) and 610 nm LP filter (acceptor)).
To confirm cellular potency for compounds described herein, the […] were used to detect engagement of STK3 and STK4 in live cells using the NanoBRET™ intracellular kinase assay, marking the first report of a NanoBRET assay for STK3 and STK4. This assay measured the apparent affinity of test compounds by competitive displacement of the NanoBRET™ tracer, reversibly bound to a NanoLuc® luciferase-kinase fusion in cells. To evaluate potential off-target activity of the inhibitors, the inhibition of LRRK2 in live cells by the STK3/4 inhibitors compounds described herein were measured. Cultured HEK293 cells were either transfected with NanoLuc®-STK3 fusion vector, NanoLuc®-STK4 fusion, or with NanoLuc®-LRRK2 vector for 24 h. A 50 nM tracer and these compounds were added to cells and incubated for 2 h. These compounds tested in the assays decreased the NanoBRET™ signal for both STK3 and STK4 at varying potencies and confirming cellular target engagement of STK3/4.

[1] = system: phosphorylated MOB1 (Thr35) in HEK293 cells; experiment: Western blot analysis of p-MOB1 in HEK293 cells; type: cell-based; details: 10 μM, 4 h, then H2O2 50 μM 2 h, vs DMSO
Experimental: Cells were harvested by pipetting, pelleted by centrifugation at 1400 rpm for 4 min, and lysed in RIPA buffer for 10 min at room temperature. The lysates were centrifuged at 12,000×g at room temperature (RT) for 10 min and the supernatants were recovered. Protein concentrations in the supernatants were determined using a BCA assay (Pierce/Thermo Scientific). Proteins were separated on NovexTM WedgeWellTM 4-20% Tris-Glycine Gels (Invitrogen; Carlsbad, CA, USA) and transferred to polyvinylidene difluoride (Trans-Blot® TurboTM Transfer Pack) membranes. […] Danvers. MA. USA). Blots were rinsed three times with TBST and then incubated in 5% nonfat milk containing horseradish peroxidase (HRP)-conjugated mouse anti-rabbit IgG secondary Ab (Cell Signaling Technology) for 1 h at RT. Blots were washed three times with TBST, developed using Pierce® ECL Western Blotting reagent, and imaged and analyzed using with ImageJ software. Quantitative data are expressed as the level of phosphorylated MOB1 normalized to total MOB1. To confirm that the cellular mechanism of action of our inhibitors was through inhibition of Hippo pathway signaling. […] Inhibition of STK3/4 in vitro and in vivo can produce decreased phosphorylation of the Hippo pathway adapter protein MOB1 at […].

Kinetic solubility = type: physicochemical
Source text: Data is represented as an average of a single experiment preformed in duplicate. Atenolol was used as an internal standard.

Caco-2 permeability = type: in vitro ADME; details: human; for Papp B→A: Caco-2; for efflux ratio: Caco-2, Papp (B→A/A→B)
Experimental: (§1) The Caco-2 cell permeability was determined for selected compounds 6, 11, 16, and 23. Permeability is classified as follows: high >10, medium, 1-10, and low ≤1. The efflux ratio is calculated by Papp (B→A/A→B). A compound is a potential transporter substrate if efflux ratio >2.0. Atenolol, Propranolol, and Taxol were used as internal standards. Data is represented as an average of a single experiment preformed in duplicate. Apparent permeability=(Papp).

Caco-2 cell = experiment: Caco-2 permeability; type: in vitro ADME; details: Caco-2, classification
Experimental: as §1

[2] = FaSSGF, fassgf or other biorelevant, kinetic from dmso stock, FaSSGF, read-out: Solubility, FASSGF
[3] = FaSSIF, kinetic from dmso stock, FaSSIF, read-out: Solubility, FaSSIF
[4] = PBS pH 7.4, pH 7.4, aqueous buffer, kinetic from dmso stock, PBS pH 7.4, read-out: Solubility, Buffer (pH = 7.4)

Sequence of LRRK2 (Q5S007 whole entry, species assumed, the tested form may be a part): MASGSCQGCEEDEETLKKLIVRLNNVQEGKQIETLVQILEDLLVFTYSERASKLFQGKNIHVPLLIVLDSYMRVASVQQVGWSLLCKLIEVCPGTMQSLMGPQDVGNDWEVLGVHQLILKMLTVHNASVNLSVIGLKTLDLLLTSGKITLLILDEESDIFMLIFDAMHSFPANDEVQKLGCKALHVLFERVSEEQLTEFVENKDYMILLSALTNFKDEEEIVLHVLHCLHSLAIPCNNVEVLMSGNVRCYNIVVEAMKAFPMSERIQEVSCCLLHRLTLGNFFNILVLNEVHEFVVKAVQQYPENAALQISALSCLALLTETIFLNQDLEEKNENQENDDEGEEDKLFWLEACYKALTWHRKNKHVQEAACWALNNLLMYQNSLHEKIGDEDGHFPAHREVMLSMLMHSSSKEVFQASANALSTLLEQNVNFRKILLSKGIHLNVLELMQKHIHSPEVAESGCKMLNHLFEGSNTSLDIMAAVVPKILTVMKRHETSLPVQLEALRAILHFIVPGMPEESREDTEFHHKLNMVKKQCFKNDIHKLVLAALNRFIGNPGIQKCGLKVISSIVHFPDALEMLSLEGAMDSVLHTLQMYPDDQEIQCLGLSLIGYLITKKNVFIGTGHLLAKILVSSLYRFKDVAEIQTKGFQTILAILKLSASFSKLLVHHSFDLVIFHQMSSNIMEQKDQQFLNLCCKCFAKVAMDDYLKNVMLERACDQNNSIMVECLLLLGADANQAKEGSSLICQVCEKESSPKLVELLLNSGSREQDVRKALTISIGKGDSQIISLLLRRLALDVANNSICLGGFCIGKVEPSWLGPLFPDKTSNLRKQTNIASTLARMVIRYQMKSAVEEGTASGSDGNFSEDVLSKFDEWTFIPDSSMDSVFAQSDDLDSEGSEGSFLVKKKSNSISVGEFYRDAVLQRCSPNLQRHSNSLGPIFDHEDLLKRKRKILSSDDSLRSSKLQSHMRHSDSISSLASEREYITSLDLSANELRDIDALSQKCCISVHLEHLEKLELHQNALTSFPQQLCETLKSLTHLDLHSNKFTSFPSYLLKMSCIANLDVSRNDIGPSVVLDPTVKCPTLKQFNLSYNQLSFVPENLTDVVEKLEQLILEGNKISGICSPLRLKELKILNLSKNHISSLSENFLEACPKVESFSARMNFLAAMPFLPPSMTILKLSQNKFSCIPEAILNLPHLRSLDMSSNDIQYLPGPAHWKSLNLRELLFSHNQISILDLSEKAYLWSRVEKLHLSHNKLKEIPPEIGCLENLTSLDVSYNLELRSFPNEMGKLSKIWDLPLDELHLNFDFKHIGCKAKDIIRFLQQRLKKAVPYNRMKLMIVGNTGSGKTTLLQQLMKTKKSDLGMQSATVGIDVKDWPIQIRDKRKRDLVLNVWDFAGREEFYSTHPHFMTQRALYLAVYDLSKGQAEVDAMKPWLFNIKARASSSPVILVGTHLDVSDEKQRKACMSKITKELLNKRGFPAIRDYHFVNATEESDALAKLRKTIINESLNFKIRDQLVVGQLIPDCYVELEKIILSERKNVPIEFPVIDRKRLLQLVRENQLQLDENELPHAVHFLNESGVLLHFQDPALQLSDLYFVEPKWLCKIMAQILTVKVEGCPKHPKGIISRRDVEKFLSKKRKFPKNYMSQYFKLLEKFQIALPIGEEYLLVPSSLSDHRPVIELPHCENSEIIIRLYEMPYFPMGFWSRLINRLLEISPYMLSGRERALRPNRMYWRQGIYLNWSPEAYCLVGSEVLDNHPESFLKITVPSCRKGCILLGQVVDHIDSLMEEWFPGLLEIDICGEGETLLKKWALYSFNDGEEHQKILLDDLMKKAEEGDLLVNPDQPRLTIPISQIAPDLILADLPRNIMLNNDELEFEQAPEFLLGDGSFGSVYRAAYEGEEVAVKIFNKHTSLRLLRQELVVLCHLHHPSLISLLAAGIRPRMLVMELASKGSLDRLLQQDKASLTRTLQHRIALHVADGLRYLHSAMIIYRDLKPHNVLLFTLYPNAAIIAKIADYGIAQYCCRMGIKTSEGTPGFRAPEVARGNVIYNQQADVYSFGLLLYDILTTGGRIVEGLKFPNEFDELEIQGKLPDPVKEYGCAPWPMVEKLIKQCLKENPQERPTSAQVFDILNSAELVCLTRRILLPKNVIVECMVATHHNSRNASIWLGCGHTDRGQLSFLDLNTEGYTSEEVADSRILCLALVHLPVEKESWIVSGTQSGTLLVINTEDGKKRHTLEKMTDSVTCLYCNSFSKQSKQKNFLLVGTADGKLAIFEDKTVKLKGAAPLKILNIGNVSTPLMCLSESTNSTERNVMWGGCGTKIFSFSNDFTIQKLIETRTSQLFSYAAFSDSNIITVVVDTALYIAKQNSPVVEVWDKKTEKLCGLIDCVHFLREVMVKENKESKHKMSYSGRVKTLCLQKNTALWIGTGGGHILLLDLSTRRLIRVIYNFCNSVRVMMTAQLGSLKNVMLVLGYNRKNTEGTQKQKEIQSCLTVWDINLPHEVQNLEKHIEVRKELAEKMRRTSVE

SMILES | Tm shift (STK3) | ΔTm at 10 µM (STK3) | LRRK2: IC50 (LRRK2) | relative expression level of phosphorylated MOB1 [1] | solubility (Kinetic solubility; [2]) | solubility (Kinetic solubility; [3]) | solubility (Kinetic solubility; [4]) | solubility (Kinetic solubility; PBS pH 7.4, read-out: Solubility, Buffer (pH = 7.4)) | Papp B→A (Caco-2 permeability) | efflux ratio (Caco-2 permeability) | Papp (Caco-2 permeability; Caco-2, classification) | Permeability (Caco-2 cell) | IC50 (LRRK2)
OC1CCN(c2ncnc3[nH]cc(-c4cccc(Cl)c4)c23)CC1 [Compound 16, 1-(5-(3-Chlorophenyl)-7H-pyrrolo[2,3-d]pyrimidin-4-yl)piperidin-4-ol] | comparable results | 8 °C | B (B: IC50 is >2000 nM and <1000 nM) | significant reduction | 352 µM (≈ 116 µg/mL) | 294 µM (≈ 96.5 µg/mL) | 189 µM (≈ 62.1 µg/mL) | 188.5 µM (≈ 62 µg/mL) | 294 ×10⁻⁶ cm/s | 1.3 | > 10 ×10⁻⁶ cm/s | High | –
Clc1cccc(-c2c[nH]c3ncnc(N4CCOCC4)c23)c1 [Compound 6, 4-(5-(3-Chlorophenyl)-7H-pyrrolo[2,3-d]pyrimidin-4-yl)morpholine] | – | 8.1 °C | – | – | 353 µM (≈ 111 µg/mL) | 35.7 µM (≈ 11.2 µg/mL) | 9.2 µM (≈ 2.9 µg/mL) | – | 35.7 ×10⁻⁶ cm/s | – | – | High | ≤ 1 µM
CC(=O)NC1CCN(c2ncnc3[nH]cc(-c4cccc(Cl)c4)c23)CC1 [Compound 105, N-(1-(5-(3-chlorophenyl)-7H-pyrrolo[2,3-d]pyrimidin-4-yl)piperidin-4-yl)acetamide] | – | – | B (B: IC50 is >2000 nM and <1000 nM) | significant reduction | – | – | – | – | – | – | – | – | –
NC(=O)c1cccc(-c2c[nH]c3ncnc(N4CCOCC4)c23)c1 [Compound 11, 3-(4-Morpholino-7H-pyrrolo[2,3-d]pyrimidin-5-yl)benzamide] | – | 7.4 °C | – | – | 430 µM (≈ 139 µg/mL) | 136 µM (≈ 43.8 µg/mL) | 145 µM (≈ 46.9 µg/mL) | – | 136 ×10⁻⁶ cm/s | – | – | Medium to High | ≥ 2 µM
Clc1cccc(-c2c[nH]c3nccc(N4CCOCC4)c23)c1 [Compound 23, 4-(3-(3-chlorophenyl)-1H-pyrrolo[2,3-b]pyridin-4-yl)morpholine] | > 7.4 °C | 7.9 °C | – | significant reduction | 372 µM (≈ 117 µg/mL) | 7 µM (≈ 2.2 µg/mL) | < 0.6 µM | – | 7 ×10⁻⁶ cm/s | 1.6 | – | High | ≤ 1 µM
